# Key:
# [1] = test system: HIV-1 patient-derived protease and reverse transcriptase segments (N88S in PR) in resistance test vectors; assay: Phenotypic drug susceptibility test with resistance test vectors from patient samples; assay type: cell-based; conditions: patient sample RTV-627
# HIV-1 = conditions: cited from earlier work
# [2] = test system: HIV-1 variants with protease substitutions; conditions: both substitutions G48V-L90M; cited from earlier work
# [3] = test system: HIV-1 patient viruses with protease L90M; assay: Phenotypic susceptibility profiles of 58 patient virus samples with L90M, no other primary mutations; assay type: cell-based; conditions: for % w with SQV FC > 2.5: L90M; for % FC > 2.5: SQV
# [4] = test system: HIV-1 patient viruses with protease L90M; assay: Phenotypic susceptibility profiles of 333 patient virus samples with L90M (not 30 or 50); assay type: cell-based; conditions: for % with SQV FC > 2.5 / wt % > 2.5 / wt % > 10: L90M
# [5] = test system: HIV-1 protease site-directed mutants (N88S, L63P, V77I, M46L) in resistance test vector; assay: Phenotypic susceptibility assay of resistance test vectors with site-directed mutations in PR
# Source text: The resistance test vectors containing a functional luciferase gene cassette were constructed and host cells were transfected with the resistance test vector DNA. […] The resistance test vector viral particles produced by transfecting the resistance test vector DNA into host cells, either in the presence or absence of protease inhibitors, were used to infect target host cells grown either in the absence of NRTI or NNRTI or in the presence of increasing concentrations of the drug. Luciferase activity in infected target host cells in the presence of drug was compared to the luciferase activity in infected target host cells in the absence of drug. […] The IC50 values were determined by plotting percent drug inhibition vs. log10 drug concentration.
# Host cells were seeded in 10-cm-diameter dishes and were transfected one day after plating with resistance test vector plasmid DNA and the envelope expression vector. Transfections were performed using a calcium-phosphate co-precipitation procedure. The cell culture media containing the DNA precipitate was replaced with fresh medium, from one to 24 hours, after transfection. Cell culture media containing resistance test vector viral particles was harvested one to four days after transfection and was passed through a 0.45-mm filter before being stored at −80° C. HIV capsid protein (p24) levels in the harvested cell culture media were determined by an EIA method as described by the manufacturer (SIAC; Frederick, Md.). Before infection, target cells (293 and 293/T) were plated in cell culture media. Control infections were performed using cell culture media from mock transfections (no DNA) or transfections containing the resistance test vector plasmid DNA without the envelope expression plasmid. One to three or more days after infection the media was removed and cell lysis buffer (Promega) was added to each well. Cell lysates were assayed for luciferase activity. The inhibitory effect of the drug was determined using the following equation: % luciferase inhibition=[1−(RLUluc[drug]RLUluc)]×100 where RLUluc [drug] is the relative light unit of luciferase activity in infected cells in the presence of drug and RLUluc is the Relative Light Unit of luciferase activity in infected cells in the absence of drug. IC50 values were obtained from the sigmoidal curves that were generated from the data by plotting the percent inhibition of luciferase activity vs. the log10 drug concentration.
# Mutations are introduced into the resistance test vector through any of the widely known methods for site-directed mutagenesis. […] A resistance test vector containing the specific mutation or group of mutations are then tested using the phenotypic susceptibility assay described above and the susceptibility profile is compared to that of a genetically defined wild-type (drug susceptible) resistance test vector which lacks the specific mutations.
# Resistance test vectors were constructed containing the N88S mutation alone and in combination with other substitutions in PR (L63P, V77I and M46L) known to modulate the HIV susceptibility to PRIs. Mutations were introduced into the resistance test vector using the mega-primer PCR method for site-directed mutagenesis.
structure (smiles),measurement,setting,value
CC(C)(C)NC(=O)[C@@H]1C[C@@H]2CCCC[C@@H]2CN1C[C@@H](O)[C@H](Cc1ccccc1)NC(=O)[C@H](CC(N)=O)NC(=O)c1ccc2ccccc2n1 [saquinavir],change in susceptibility,[1],increase
same,patients in whom resistant variants emerge,"HIV-1; after 1 year of monotherapy with 1,800 mg daily",approximately 45%
same,frequency of resistance,"HIV-1; combination therapy with zidovudine, zalcitabine, and saquinavir",22%
same,loss of susceptibility,[2],> 100 fold
same,% w with SQV FC > 2.5,[3]; number of secondary mutations 0,53%
same,% w with SQV FC > 2.5,[3]; number of secondary mutations 1,47%
same,% w with SQV FC > 2.5,[3]; number of secondary mutations 2,43%
same,% w with SQV FC > 2.5,[3]; number of secondary mutations 3,68%
same,% w with SQV FC > 2.5,[3]; number of secondary mutations 4,77%
same,% w with SQV FC > 2.5,[3]; number of secondary mutations 5,100%
same,% w with SQV FC > 2.5,[3]; number of secondary mutations 6,100%
same,% FC > 2.5,[3]; L90M + mutation at position 10,65%
same,% FC > 2.5,[3]; L90M + mutation at position 71,78%
same,% FC > 2.5,"[3]; L90M + mutation at position 71, listed as SQV",78%
same,% FC > 2.5,[3]; L90M + mutation at position 73,79%
same,% FC > 2.5,"[3]; L90M + mutation at position 73, listed as SQV",79%
same,% FC > 2.5,[3]; L90M + mutation at position 77,76%
same,% FC > 2.5,[3]; listed as 90: all viruses with L90M,55%
same,% with SQV FC > 2.5,[4]; number of secondary mutations (weighted count) 0,23.5%
same,% with SQV FC > 2.5,[4]; number of secondary mutations (weighted count) 1,25.0%
same,% with SQV FC > 2.5,[4]; number of secondary mutations (weighted count) 2,69.4%
same,% with SQV FC > 2.5,[4]; number of secondary mutations (weighted count) 3,85.7%
same,% with SQV FC > 2.5,[4]; number of secondary mutations (weighted count) 4,97.3%
same,% with SQV FC > 2.5,[4]; number of secondary mutations (weighted count) 5,100%
same,% with SQV FC > 2.5,[4]; number of secondary mutations (weighted count) 6 or more,100%
same,wt % > 2.5,"[4]; Saquinavir FC>2.5, position 10 wild type",56.4%
same,wt % > 2.5,"[4]; Saquinavir FC>2.5, position 20 wild type",73.9%
same,wt % > 2.5,"[4]; Saquinavir FC>2.5, position 33 wild type",77.4%
same,wt % > 2.5,"[4]; Saquinavir FC>2.5, position 36 wild type",74.9%
same,wt % > 2.5,"[4]; Saquinavir FC>2.5, position 37 wild type",76.4%
same,wt % > 2.5,"[4]; Saquinavir FC>2.5, position 48 wild type",78.1%
same,wt % > 2.5,"[4]; Saquinavir FC>2.5, position 53 wild type",77.3%
same,wt % > 2.5,"[4]; Saquinavir FC>2.5, position 54 wild type",68.1%
same,wt % > 2.5,"[4]; Saquinavir FC>2.5, position 63 wild type",37.5%
same,wt % > 2.5,"[4]; Saquinavir FC>2.5, position 64 wild type",83.1%
same,wt % > 2.5,"[4]; Saquinavir FC>2.5, position 66 wild type",78.4%
same,wt % > 2.5,"[4]; Saquinavir FC>2.5, position 71 wild type",58.0%
same,wt % > 2.5,"[4]; Saquinavir FC>2.5, position 73 wild type",73.6%
same,wt % > 2.5,"[4]; Saquinavir FC>2.5, position 84 wild type",70.7%
same,wt % > 2.5,"[4]; Saquinavir FC>2.5, position 93 wild type",85.6%
same,mt % > 2.5,"[4]; Saquinavir FC>2.5, listed as 90: all samples with L90M",79.3%
same,wt % > 10,"[4]; Saquinavir FC>10, position 10 wild type",20.5%
same,wt % > 10,"[4]; Saquinavir FC>10, position 20 wild type",33.9%
same,wt % > 10,"[4]; Saquinavir FC>10, position 23 wild type",42.4%
same,wt % > 10,"[4]; Saquinavir FC>10, position 35 wild type",38.8%
same,wt % > 10,"[4]; Saquinavir FC>10, position 36 wild type",34.2%
same,wt % > 10,"[4]; Saquinavir FC>10, position 48 wild type",40.8%
same,wt % > 10,"[4]; Saquinavir FC>10, position 53 wild type",39.8%
same,wt % > 10,"[4]; Saquinavir FC>10, position 54 wild type",32.8%
same,wt % > 10,"[4]; Saquinavir FC>10, position 58 wild type",41.6%
same,wt % > 10,"[4]; Saquinavir FC>10, position 62 wild type",38.5%
same,wt % > 10,"[4]; Saquinavir FC>10, position 64 wild type",46.1%
same,wt % > 10,"[4]; Saquinavir FC>10, position 71 wild type",29.0%
same,wt % > 10,"[4]; Saquinavir FC>10, position 73 wild type",39.4%
same,wt % > 10,"[4]; Saquinavir FC>10, position 77 wild type",49.5%
same,wt % > 10,"[4]; Saquinavir FC>10, position 84 wild type",24.9%
same,wt % > 10,"[4]; Saquinavir FC>10, position 93 wild type",50.7%
same,mt % > 10,"[4]; Saquinavir FC>10, listed as 90: all samples with L90M",43.5%
same,Fold Change vs. reference,[5]; site-directed mutation N88S,0.47 fold
same,Fold Change vs. reference,[5]; site-directed mutations L63P,1.04 fold
same,Fold Change vs. reference,"[5]; site-directed mutations L63P, N88S",1.44 fold
same,Fold Change vs. reference,"[5]; site-directed mutations M46L, L63P, V77I, N88S",1.45 fold
